Data: US20220289794A1, “SYNTHETIC ANTIMICROBIAL PEPTIDES” (priority 2019, published 2022)
Converted amounts (≈) assume the structure as drawn. Non-standard residues stand in square brackets, D forms with d. Residues, ends and D or L forms follow the SMILES beside them. dDip = N[C@@H](C(=O)O)C(c1ccccc1)c1ccccc1; Dip = N[C@H](C(=O)O)C(c1ccccc1)c1ccccc1; 2Nal = N[C@@H](Cc1ccc2ccccc2c1)C(=O)O; d2Nal = N[C@H](Cc1ccc2ccccc2c1)C(=O)O; Dab = NCC[C@H](N)C(=O)O

Key:
[1] = system: Pseudomonas aeruginosa (ATCC 27883); details: ATCC 27883
[2] = system: Escherichia coli (ATCC 25922); details: ATCC 25922
S. aureus ATCC 29213 = details: ATCC 29213
[3] = system: Methicillin-resistant Staphylococcus aureus MRSA (ATCC BAA-1556); details: ATCC BAA-1556
human red blood cells = system: human red blood cells; parameters: unit not given beside the values
in vitro = details: human, fresh human red blood cells (washed), pH 7.4

Row | Structure (SMILES) | MIC P. aeruginosa ATCC 27883 [1] [µg/mL] | MIC E. coli ATCC 25922 [2] [µg/mL] | MIC S. aureus ATCC 29213 (S. aureus ATCC 29213) [µg/mL] | MIC MRSA ATCC BAA-1556 [3] [µg/mL] | HC50 (human red blood cells) | HC50 at 0.5 h (in vitro) [µg/mL]
1 | N=C(N)NCCC[C@@H]1NC(=O)[C@@H](CCCNC(=N)N)NC(=O)[C@H](CCCNC(=N)N)NC(=O)[C@@H](Cc2ccc3ccccc3c2)NC(=O)[C@@H](Cc2ccc3ccccc3c2)NC(=O)[C@H](Cc2c[nH]c3ccccc23)NC(=O)[C@H](CCN)NC(=O)[C@@H](CCCNC(=N)N)NC1=O [IFX-054, c[Arg-arg-Arg-arg-Dab-Trp-naI-naI]] (cyclo([Dab]W[d2Nal][d2Nal]R[dR]R[dR])) | 64 (≈ 49 µM) | 32 (≈ 24.5 µM) | 32 (≈ 24.5 µM) | 64 (≈ 49 µM) | 620 | –
2 | N=C(N)NCCC[C@@H]1NC(=O)[C@H](CCN)NC(=O)[C@@H](CCCNC(=N)N)NC(=O)[C@H](CCCNC(=N)N)NC(=O)[C@@H](Cc2ccc3ccccc3c2)NC(=O)[C@@H](Cc2ccc3ccccc3c2)NC(=O)[C@H](Cc2c[nH]c3ccccc23)NC(=O)[C@@H](CCCNC(=N)N)NC1=O [IFX-055, c[Arg-arg-Dab-Arg-arg-Trp-naI-naI]] (cyclo([Dab]R[dR]W[d2Nal][d2Nal]R[dR])) | 32 (≈ 24.5 µM) | 16 (≈ 12.3 µM) | 32 (≈ 24.5 µM) | 32 (≈ 24.5 µM) | 575 | –
3 | N=C(N)NCCC[C@@H]1NC(=O)[C@H](CCN)NC(=O)[C@@H](Cc2ccc3ccccc3c2)NC(=O)[C@@H](Cc2ccc3ccccc3c2)NC(=O)[C@H](Cc2c[nH]c3ccccc23)NC(=O)[C@@H](CCCNC(=N)N)NC(=O)[C@H](CCCNC(=N)N)NC(=O)[C@@H](CCCNC(=N)N)NC1=O [IFX-056, c[Dab-Arg-arg-Arg-arg-Trp-naI-naI]] (cyclo([Dab]R[dR]R[dR]W[d2Nal][d2Nal])) | 32 (≈ 24.5 µM) | 32 (≈ 24.5 µM) | 32 (≈ 24.5 µM) | 64 (≈ 49 µM) | 415 | –
4 | N=C(N)NCCC[C@@H]1NC(=O)[C@H](CCN)NC(=O)[C@@H](Cc2ccc3ccccc3c2)NC(=O)[C@@H](Cc2ccc3ccccc3c2)NC(=O)[C@H](Cc2c[nH]c3ccccc23)NC(=O)[C@H](CCN)NC(=O)[C@@H](CCCNC(=N)N)NC(=O)[C@H](CCCNC(=N)N)NC(=O)[C@@H](CCCNC(=N)N)NC1=O [IFX-057, c[Dab-Arg-arg-Arg-arg-Dab-Trp-naI-naI]] (cyclo([Dab]R[dR]R[dR][Dab]W[d2Nal][d2Nal])) | 32 (≈ 22.8 µM) | 32 (≈ 22.8 µM) | 16 (≈ 11.4 µM) | 32 (≈ 22.8 µM) | 520 | –
5 | N=C(N)NCCC[C@@H]1NC(=O)[C@H](CCN)NC(=O)[C@@H](Cc2ccc3ccccc3c2)NC(=O)[C@@H](Cc2ccc3ccccc3c2)NC(=O)[C@H](Cc2c[nH]c3ccccc23)NC(=O)[C@@H](CCCNC(=N)N)NC(=O)[C@H](CCCNC(=N)N)NC(=O)[C@H](CCN)NC(=O)[C@@H](CCCNC(=N)N)NC1=O [IFX-058, c[Dab-Arg-arg-Dab-Arg-arg-Trp-naI-naI]] (cyclo([Dab]R[dR][Dab]R[dR]W[d2Nal][d2Nal])) | 32 (≈ 22.8 µM) | 32 (≈ 22.8 µM) | 32 (≈ 22.8 µM) | 64 (≈ 45.5 µM) | 655 | –
6 | N=C(N)NCCC[C@@H]1NC(=O)[C@H](CCN)NC(=O)[C@@H](CCCNC(=N)N)NC(=O)[C@H](CCCNC(=N)N)NC(=O)[C@@H](Cc2ccc3ccccc3c2)NC(=O)[C@@H](Cc2ccc3ccccc3c2)NC(=O)[C@H](Cc2c[nH]c3ccccc23)NC(=O)[C@H](CCN)NC(=O)[C@@H](CCCNC(=N)N)NC1=O [IFX-059, c[Arg-arg-Dab-Arg-arg-Dab-Trp-naI-naI]] (cyclo([Dab]R[dR][Dab]W[d2Nal][d2Nal]R[dR])) | 32 (≈ 22.8 µM) | 32 (≈ 22.8 µM) | 64 (≈ 45.5 µM) | 128 (≈ 91.1 µM) | 780 | –
7 | N=C(N)NCCC[C@@H]1NC(=O)[C@@H](CCCNC(=N)N)NC(=O)[C@H](CCCNC(=N)N)NC(=O)[C@@H](CCCNC(=N)N)NC(=O)[C@@H](C(c2ccccc2)c2ccccc2)NC(=O)[C@@H](C(c2ccccc2)c2ccccc2)NC(=O)[C@@H](C(c2ccccc2)c2ccccc2)NC1=O [IFX-068, c[arg-Arg-arg-Arg-dip-dip-dip]] (cyclo([dR]R[dR]R[dDip][dDip][dDip])) | 12.5 (≈ 9.66 µM) | – | – | – | – | 280
8 | N=C(N)NCCC[C@@H]1NC(=O)[C@@H](CCCNC(=N)N)NC(=O)[C@H](CCCNC(=N)N)NC(=O)[C@@H](CCCNC(=N)N)NC(=O)[C@@H](C(c2ccccc2)c2ccccc2)NC(=O)[C@H](C(c2ccccc2)c2ccccc2)NC(=O)[C@@H](C(c2ccccc2)c2ccccc2)NC1=O [IFX-069, c[arg-Arg-arg-Arg-dip-Dip-dip]] (cyclo([dR]R[dR]R[dDip][Dip][dDip])) | 6.2 (≈ 4.79 µM) | – | – | – | – | 200
9 | N=C(N)NCCC[C@@H]1NC(=O)[C@H](C(c2ccccc2)c2ccccc2)NC(=O)[C@@H](C(c2ccccc2)c2ccccc2)NC(=O)[C@H](C(c2ccccc2)c2ccccc2)NC(=O)[C@@H](CCCNC(=N)N)NC(=O)[C@H](CCCNC(=N)N)NC(=O)[C@@H](CCCNC(=N)N)NC1=O [IFX-071, c[Arg-arg-Arg-arg-Dip-dip-Dip]] (cyclo(R[dR]R[dR][Dip][dDip][Dip])) | 12.5 (≈ 9.66 µM) | – | – | – | – | 150
10 | N=C(N)NCCC[C@@H]1NC(=O)[C@H](CCCNC(=N)N)NC(=O)[C@H](CCCNC(=N)N)NC(=O)[C@@H](C(c2ccccc2)c2ccccc2)NC(=O)[C@@H](C(c2ccccc2)c2ccccc2)NC(=O)[C@@H](C(c2ccccc2)c2ccccc2)NC(=O)[C@H](CCCNC(=N)N)NC1=O [IFX-072, c[Arg-Arg-Arg-Arg-dip-dip-dip]] (cyclo(RRRR[dDip][dDip][dDip])) | 12.5 (≈ 9.66 µM) | – | – | – | – | 265
11 | N=C(N)NCCC[C@H]1NC(=O)[C@H](C(c2ccccc2)c2ccccc2)NC(=O)[C@H](C(c2ccccc2)c2ccccc2)NC(=O)[C@H](C(c2ccccc2)c2ccccc2)NC(=O)[C@@H](CCCNC(=N)N)NC(=O)[C@@H](CCCNC(=N)N)NC(=O)[C@@H](CCCNC(=N)N)NC1=O [IFX-073, c[arg-arg-arg-arg-Dip-Dip-Dip]] (cyclo([dR][dR][dR][dR][Dip][Dip][Dip])) | 6.2 (≈ 4.79 µM) | – | – | – | – | 245
12 | N=C(N)NCCC[C@@H]1NC(=O)[C@H](CCCNC(=N)N)NC(=O)[C@H](CCCNC(=N)N)NC(=O)[C@H](CCCNC(=N)N)NC(=O)[C@@H](Cc2ccc3ccccc3c2)NC(=O)[C@H](Cc2ccc3ccccc3c2)NC(=O)[C@H](Cc2ccc3ccccc3c2)NC1=O [IFX-074, c[Arg-Arg-Arg-Arg-NaI-NaI-naI]] (cyclo(RRRR[2Nal][2Nal][d2Nal])) | 12.5 (≈ 10.3 µM) | – | – | – | – | 200
13 | N=C(N)NCCC[C@@H]1NC(=O)[C@H](CCCNC(=N)N)NC(=O)[C@H](CCCNC(=N)N)NC(=O)[C@H](Cc2ccc3ccccc3c2)NC(=O)[C@@H](Cc2ccc3ccccc3c2)NC(=O)[C@H](Cc2ccc3ccccc3c2)NC(=O)[C@H](CCCNC(=N)N)NC1=O [IFX-075, c[Arg-Arg-Arg-Arg-NaI-naI-NaI]] (cyclo(RRRR[2Nal][d2Nal][2Nal])) | 12.5 (≈ 10.3 µM) | – | – | – | – | 100
14 | N=C(N)NCCC[C@@H]1NC(=O)[C@H](CCCNC(=N)N)NC(=O)[C@H](Cc2ccc3ccccc3c2)NC(=O)[C@H](Cc2ccc3ccccc3c2)NC(=O)[C@@H](Cc2ccc3ccccc3c2)NC(=O)[C@H](CCCNC(=N)N)NC(=O)[C@H](CCCNC(=N)N)NC1=O [IFX-076, c[Arg-Arg-Arg-Arg-naI-NaI-NaI]] (cyclo(RRRR[d2Nal][2Nal][2Nal])) | 12.5 (≈ 10.3 µM) | – | – | – | – | 100
15 | N=C(N)NCCC[C@@H]1NC(=O)[C@H](Cc2ccc3ccccc3c2)NC(=O)[C@H](Cc2ccc3ccccc3c2)NC(=O)[C@H](Cc2ccc3ccccc3c2)NC(=O)[C@@H](CCCNC(=N)N)NC(=O)[C@H](CCCNC(=N)N)NC(=O)[C@H](CCCNC(=N)N)NC1=O [IFX-077, c[Arg-Arg-Arg-arg-NaI-NaI-NaI]] (cyclo(RRR[dR][2Nal][2Nal][2Nal])) | 12.5 (≈ 10.3 µM) | – | – | – | – | 100
16 | N=C(N)NCCC[C@@H]1NC(=O)[C@H](Cc2ccc3ccccc3c2)NC(=O)[C@H](Cc2ccc3ccccc3c2)NC(=O)[C@H](Cc2ccc3ccccc3c2)NC(=O)[C@H](CCCNC(=N)N)NC(=O)[C@@H](CCCNC(=N)N)NC(=O)[C@H](CCCNC(=N)N)NC1=O [IFX-078, c[Arg-Arg-arg-Arg-NaI-NaI-NaI]] (cyclo(RR[dR]R[2Nal][2Nal][2Nal])) | 12.5 (≈ 10.3 µM) | – | – | – | – | 95
17 | N=C(N)NCCC[C@@H]1NC(=O)[C@H](CCCNC(=N)N)NC(=O)[C@@H](CCCNC(=N)N)NC(=O)[C@H](CCCNC(=N)N)NC(=O)[C@H](Cc2ccc3ccccc3c2)NC(=O)[C@H](Cc2ccc3ccccc3c2)NC(=O)[C@H](Cc2ccc3ccccc3c2)NC1=O [IFX-079, c[Arg-arg-Arg-Arg-NaI-NaI-NaI]] (cyclo(R[dR]RR[2Nal][2Nal][2Nal])) | 12.5 (≈ 10.3 µM) | – | – | – | – | 100
